# According to US10426758B2, “Sibiriline derivatives for use for preventing and/or treating disorders associated with cellular necroptosis” (Institut National de la Sante et de la Recherche Medicale …, priority 2015, dated 2019):
# How the values were obtained:
# L929AsFas cells = test: Anti-necroptotic effect, L929AsFas cells, FasL + zVAD, FACS of propidium iodide-stained nuclei; assay type: cell-based
# Protocol: (§1) L929 cells, L929AsFas cells, Jurkat FADD-deficient cells (Jurkat FADD^−/−), U937 cells are pretreated for 1 h with increased concentrations of Sib (0, 5, 10, 20 μM) and then treated respectively with TNF-α (10 ng/ml)+zVAD (20 μM), FasL (200 ng/ml)+zVAD (20 μM), TNF-α (10 ng/ml), TRAIL (200 ng/ml)+zVAD (30 μM) or TRAIL (200 ng/ml)+zVAD (30 μM)+CHX (1 μg/ml). % of cell death is determined after 24 h and calculated by a FACS analysis of Propidium Iodide-stained nuclei. In each case, the EC50 is determined as well as the % of rescue from cell death.
# U937 cells [1] = test: Anti-necroptotic effect, U937 cells, TRAIL + zVAD, FACS of propidium iodide-stained nuclei; assay type: cell-based
# Protocol: as §1
# U937 cells [2] = test: Anti-necroptotic effect, U937 cells, TRAIL + zVAD + CHX, FACS of propidium iodide-stained nuclei; assay type: cell-based
# Protocol: as §1
# [3] = system: Jurkat Fadd deficient cells; test: Delayed treatment of Sib on TNF-induced necroptotic cell-death; assay type: cell-based, human; conditions: 10 μM added 1 h, 2 h, 3 h or 4 h after TNF-α (10 ng/ml); cell death after 24 h
# Protocol: Jurkat Fadd deficient cells are treated with TNF-α (10 ng/ml) then treated with Sib (10 μM) at 1 h, 2 h, 3 h or 4 h after adding TNF-α. % of cell death is determined after 24 h and calculated by a FACS analysis of Propidium Iodide-stained nuclei. Quantitative analysis of three independent experiments with means±SD.
# L929 cells = test: Clonogenic assay (CA); assay type: cell-based; conditions: 10 μM for 24 hours with TNF-α (10 ng/ml)/z-VAD (20 μM); 15 days of culture
# Protocol: This effect of Sibiriline on necroptosis was verified using clonogenic assay (CA). CA is an in vitro cell survival assay based on the ability of a single cell to grow into a colony.
# L929 cells are treated by TNF-α (10 ng/ml)/z-VAD (20 μM) w/or w/o 10 μM Sib for 24 hours. After treatment, cells are seeded out in appropriate dilutions (here 5,000 cells per well) to form colonies in 2 weeks. Colonies are fixed with ice cold methanol and stained with crystal violet.
# [4] = molecular target: T1, Human RIPK1 full length GST-tagged (Homo sapiens, UniProt Q13546); test: RIPK1 autophosphorylation assay; assay type: biochemical; conditions: radioactively labeled RIPK1, [γ-32P] ATP, 30 minutes at 30° C.
# T1 construct: Human RIPK1 full length GST-tagged; made in house; host or cells: Sf9 insect cells (Bac-to-Bac baculovirus system)
# T1 sequence (Q13546 1-671): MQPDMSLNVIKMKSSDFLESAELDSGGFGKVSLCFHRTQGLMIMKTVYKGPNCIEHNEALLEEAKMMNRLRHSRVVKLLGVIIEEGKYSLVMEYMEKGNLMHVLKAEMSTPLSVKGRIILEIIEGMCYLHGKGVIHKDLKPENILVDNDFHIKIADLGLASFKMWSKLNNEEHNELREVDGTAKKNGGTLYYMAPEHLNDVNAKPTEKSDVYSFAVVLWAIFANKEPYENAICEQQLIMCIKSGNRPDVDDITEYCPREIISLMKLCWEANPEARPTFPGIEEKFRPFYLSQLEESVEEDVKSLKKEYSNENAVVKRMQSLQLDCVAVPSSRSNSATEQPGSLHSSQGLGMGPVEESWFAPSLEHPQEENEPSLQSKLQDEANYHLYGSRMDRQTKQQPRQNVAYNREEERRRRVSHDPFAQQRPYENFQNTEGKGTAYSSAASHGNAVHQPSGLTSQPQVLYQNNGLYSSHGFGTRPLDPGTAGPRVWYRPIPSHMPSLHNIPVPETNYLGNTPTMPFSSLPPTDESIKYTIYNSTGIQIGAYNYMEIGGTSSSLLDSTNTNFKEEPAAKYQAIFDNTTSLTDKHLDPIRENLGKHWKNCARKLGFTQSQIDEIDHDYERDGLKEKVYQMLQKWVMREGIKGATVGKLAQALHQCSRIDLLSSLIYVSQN
# Protocol: Human RIPK1 full length GST-tagged was baculovirally expressed in Sf9 cells according to manufacturer's instructions (Bac-to-Bac expression system, Invitrogen) and purified using gluthation-sepharose beads (GE Healthcare). The elution was made in 50 mM Tris-HCl, pH 8.0 buffer supplemented with 30 mM reduced gluthatione (Sigma). The protocol used to detect the enzymatic activity is adapted from Miao and Degterev (Methods Mol. Biol. 2009, 559, 79-93). Kinase reaction was initiated mixing 5 μl of eluted RIPK1, 5 μl of 3× kinase reaction buffer (5 mM MOPS pH 7.2, 2.5 mM β-glycerophosphate, 4 mM MgCl2, 2.5 mM MnCl2, 1 mM EGTA, 0.4 mM EDTA, 50 μg/ml BSA, 0.05 mM DTT), 2 μl H2O and 3 μl of the tested molecule. The mixture was kept on ice for 10 minutes. During the incubation, the ATP solution was prepared by mixing 5 μl of 3× kinase reaction buffer, 4 μl H2O, 6 μl cold ATP at 150 μM and 2 μCi of [γ-^32P] ATP. Add the ATP solution and the tested inhibitor to the kinase and incubate for 30 minutes at 30° C. To stop the enzymatic reaction, 5 μl of loading buffer were added and solution was heated for 3 minutes at 95° C. 25 μl of each reaction were loaded per well in pre-cast NuPage 12% Bis-Tris gel (Life Technology). Autophosphorylated RIPK1 band was visualized on radiographic film after 6 h exposition at −80° C.
# RIPK1 = molecular target: T2, RIPK1 (Homo sapiens, UniProt Q13546); test: Competition binding assay for kinase targets of Sib (456 kinases); conditions: remaining kinase on the matrix after competition, read-out: Percent Control (%)
# T2 construct: purchased DiscoveRx Corporation (KdELECT service)
# T2 sequence (Q13546 1-671): T1 sequence (Q13546 1-671)
# Protocol: The assay is performed by combining three components: DNA-tagged kinase (a total of 456 kinases were tested); immobilized ligand; and a test compound (here Sib). The ability of Sib to compete with the immobilized ligand is measured via quantitative PCR of the DNA tag.
# [5] = system: cytochrome P450 CYP1A enzymes in HepG2 cells; test: Ethoxyresorufin O-deethylase (EROD) activity in HepG2 cells; assay type: in vitro ADME, human; conditions: 10 μM, 24 hours
# Protocol: EROD activity corresponds to the O-deethylation of ethoxyresorufin and is mainly supported by cytochrome P450 CYP1A enzymes in HepG2 cells. Induction of CYP1A is mediated through the binding of xenobiotics to a cytosolic aryl hydrocarbon receptor AhR.
# Human liver cancer cell lines HepG2 were treated with 10 μM of Sib, Nec-1 or Nec-1s for 24 hours. After treatment, HepG2 cells were incubated in PBS containing 5 mM ethoxyresorufin and kinetic reading was performed at 37° C. with spectrofluorometer (SpectraMax Gemini SX) over a 15 min period.
# [6] = Homo sapiens, U-937, 1 h pretreatment, cell death after 24 h
structure (smiles),measurement,setting,value
"Oc1ccc(-c2cc3cccnc3[nH]2)cc1 [compound 2, 4-(1H-pyrrolo[2,3-b]pyridin-2-yl)phenol]",EC50,"L929AsFas cells; 1 h pretreatment, cell death after 24 h",2.4 µM
same,% Rescue,"L929AsFas cells; rescue from cell death, 24 h",80%
same,EC50,U937 cells [1]; [6],4 µM
same,% Rescue,"U937 cells [1]; rescue from cell death, 24 h",90%
same,EC50,U937 cells [2]; [6],20 µM
same,% Rescue,"U937 cells [2]; rescue from cell death, 24 h",50%
same,effect on necroptotic cell-death with delayed treatment,[3],inhibits the necroptotic cell-death
same,cell colonies (cellular growth) after treatment,L929 cells,can restore the cellular growth and protect cells from death
same,inhibition of RIPK1 autophosphorylation,[4],dose-dependent inhibition
same,inhibition of RIPK1 autophosphorylation,[4]; listed as Sib,inhibit the RIPK1 autophosphorylation
same,remaining binding at 10 µM,RIPK1,0.2%
same,induction of EROD activity,[5],do not induce EROD activity
